Test results reported in US20260335398A1, “METHODS FOR TREATING PANCREATIC CANCER WITH A COMBINATION OF DES-METHYL PATEAMINE A AND A CLASS I HDAC INHIBITOR” (Baylor University, priority 2023, published 2026).

Assays:
[1] = tested on: c-MYC; assay: Immunoblot of c-MYC protein levels in PDAC cell lines treated with DMPatA and DMDAPatA (FIG. 6B); assay type: cell-based; conditions: Capan-1, PANC-1, AsPC-1, MIA PaCa-2; 24 and 48 hours; DMPatA 10 and 20 nM, DMDAPatA 40 nM
Protocol: FIG. 6B compares immunoblots of c-MYC protein levels from whole cell extracts of various PDAC cell lines (Capan-1, PANC-t, AsPC-1, MIA PaCa-2) treated with DMPatA (10 nM and 20 nM) and DMDPatA ([…]) (40 nM). Treatment was for 24 and 48 hours.
Western blotting was carried out as previously described (Luchenko V L, Litman T, Chakraborty A R, et al. 65. Membranes were probed with primary antibodies: Phospho-Histone H2A.X (Ser139) (1:1000, Millipore Sigma #05-636), GAPDH (1:10000, Abcam #ab8245), c-Myc (1:1000, Abcam #ab32072), β-Actin (1:1000, Cell Signaling Technology (CST), #8457), Phospho-RPA32/RPA2 (Ser33) (1:1000, Cell Signaling Technology #10148), Phospho-Chk1 (Ser345) (1:1000, CST #2341), and secondary antibodies IRDye® 680RD Goat anti-Mouse and IRDye® 800CW Goat anti-Rabbit (both from LI-COR Biosciences). Signal quantification was performed using the Odyssey CLx imaging system (LI-COR Biosciences), capturing various exposures within the linear range with ImageStudio software V3.1 (LI-COR Biosciences).

[2] = tested on: MIA PaCa-2 and KLM cells; assay: RNA-seq gene expression analysis (FIG. 9A); assay type: cell-based; conditions: total 18 h (6 h romidepsin 15 nM + 12 h with/without DMPatA 2 nM); |log2FC|≥1, adjusted p<0.05
Protocol: Plots show a significant increase in the overall gene expression in the cells treated with the combination. Cells treated for a total of 18 h (i.e., 6-hour romidepsin followed by 12-hour incubation with 2 nM DMPatA (combo) or without (Romi alone)).
To gain further insight into the effects of the combination treatment gene expression was profiled in MIA PaCa-2 and KLM cells treated with vehicle, the single agents, or the combination for a total of 18 h (i.e., 6-hour romidepsin treatment followed by 12-hour washout with 2 nM DMPatA or without), probing whether alterations observed following combination treatment could be explained by changes in gene expression.
Total RNA was extracted using RNeasy mini kit (Qiagen) from cells collected after 18 hours (6 hours romidepsin (15 nM)+12 hours washout with or without DMPatA (2 nM)) incubation with or without drugs. RNA quantitation and quality were assessed by the Agilent Bioanalyzer 2100 at the Molecular Pathology Shared Resource of the Herbert Irving Comprehensive Cancer Center at Columbia University (mBank). RNA library preparation and sequencing was performed at Columbia University's Sulzberger Genome Center. Briefly, poly-A pull-down was used to enrich mRNAs from total RNA samples, followed by library construction using Illumina TruSeq chemistry. Libraries were then sequenced using Illumina NovaSeq 6000. For the DESeq2 (v 1.40.2) analysis the data were imported with tximport in DESeq2 and a dds object was generated. Variance stabilizing transformation was used on the object and the output was used for the heatmap and PCA plots. Abundance of transcripts was estimated by pseudoalignment using kallisto, and downstream analysis was performed using R (v4.3.1) and the indicated packages. […] Differentially expressed genes were determined using linear regression method (limma v3.56.2), and genes with |log 2FC|≥1 and adjusted p-value <0.05 were plotted accordingly on volcano plots and heatmap (ggplot2 v3.5.0 and ComplexHeatmap v2.16.0). […]

[3] = Body weight of xenograft mice (FIG. 2B); assay type: in vivo, athymic nude mice; conditions: IP; romidepsin 0.75 mg/kg, DMPatA 0.075 mg/kg
Source text: FIGS. 2A and 2B illustrate the results of a MIA PaCa-2 xenograft model of PDAC in male athymic nude mice. FIG. 2A compares tumor growth (mm^3) in mice treated with the indicated concentrations of combination, romidepsin and DMPatA using IP route and vehicles described in the materials and methods section below. FIG. 2B compares body weight (g) of mice treated with the combination and single agents following treatment. FIGS. 2C and 2D compare quantification of H3K9ac and c-MYC antibodies. Frozen sections from MIA PaCa-2 xenograft tumor tissues were subjected to immunohistochemical analysis using antibodies against H3K9ac, and c-MYC. Fluorescence images were captured using fluorescent microscopy and the fluorescent signal from H3K9ac and c-MYC antibodies were quantified. To quantify fluorescence intensity at least 500 cells per condition were measured for each antibody at 40× magnification. The median of the signal intensity is shown. Statistical significance was determined by one-way ANOVA using Tukey multiple comparisons test, ****p value<0.0001.
Animal studies were performed according to Institutional Animal Care and Use Committee (IACUC) protocol number AC-AABD2601. Following the establishment of initial dose levels for individual drugs, efficacy of the combination and single agents in a MIA PaCa-2 xenograft model was assessed at a tolerable dose and schedule. […]

[4] = tested on: PDAC cell lines (Capan-1, PANC-1, AsPC-1, MIA PaCa-2); assay: Cytotoxicity/cell viability (CellTiter-Glo) of DMPatA on PDAC cell lines, 48 h (FIG. 6A); assay type: cell-based; conditions: four PDAC cell lines (Capan-1, PANC-1, AsPC-1, MIA PaCa-2)
Protocol: FIG. 6A compares cytotoxicity graphs of the effect (viability) of DMPatA on various PDAC cell lines (Capan-1, PANC-1, AsPC-1, MIA PaCa-2) following 48 hours of treatment.
(§1) Previous studies have reported that inhibitors of translation initiation prevent cell proliferation and reduce levels of critical oncoproteins such as MYC and cyclinD1. The effects of DMPatA, a novel inhibitor of eIF4A helicase, was evaluated on four PDAC cell lines. All cells were sensitive to treatment with IC50s ranging from 2.8 to 10 nM (FIG. 6A). […] The efficacy of another eIF4Ai, zotatifin (eFT226), was evaluated on MIA PaCa-2 and KLM cells.
(§2) Cell viability was determined using CellTiter-Glo® reagent (Promega, #G7570) following the manufacturer's instructions. Cells were seeded at […] in white 96-well plates and grown overnight. They were then treated and incubated at 37 °C with 5% CO2. After incubation, assay reagent was added, and luminescent signals were quantified using a microplate reader (PHERAstar® FS, BMG LABTECH, Ortenberg, Germany). Caspase-Glo 3/7 assay (Promega, #G8091) was also employed following the manufacturer's instructions to measure apoptosis.

[5] = tested on: MIA PaCa-2 and KLM cells; assay: Cell proliferation with zotatifin on MIA PaCa-2 and KLM cells; assay type: cell-based
Protocol: as §1, §2

CC(/C=C/C(C)=C/[C@@H]1Cc2nc(cs2)CCCCC(=O)O[C@@H](C)C/C(C)=C/C=C\C(=O)O1)=C\CN(C)C [DMDAPatA, des-methyl des-amino pateamine A]
c-MYC protein levels [1]: reduced c-MYC levels in all cell lines

CC(/C=C/C(C)=C/[C@@H]1Cc2nc(cs2)CC[C@@H](N)CC(=O)O[C@@H](C)C/C(C)=C/C=C\C(=O)O1)=C\CN(C)C [DMPatA, des-methyl pateamine A]
number of differentially expressed genes (DEGs) [2]: 1443 DEGs | body weight vs vehicle [3]: neither the single agent nor the combination treatments had a significant impact on weight | IC50 [4]: 2.8 to 10 nM

COc1cc2c(c(OC)n1)[C@]1(O)[C@H](O)[C@H](CN(C)C)[C@@H](c3ccccc3)[C@]1(c1ccc(C#N)cc1)O2 [zotatifin]
potency in suppressing proliferation, DMPatA vs zotatifin [5]: reduced potency, compared to DMPatA
